US12097177B2, “Therapeutic method for cat with chronic kidney disease” (Toray Industries, Inc., priority 2021, dated 2024)
Read-outs that look alike come from different tables or passages of the source.

Assays:
[1] = tested on: cats with naturally occurring CKD; conditions: cited from earlier work
cats with CKD [2] = experiment: Retrospective observation study: period before kidney death (serum creatinine higher than 10.0 mg/dL), BPS therapy vs No BPS therapy; type: in vivo, cat; conditions: for 3-year kidney survival rate: cats with CKD; for average period before kidney death: Kaplan-Meier
Procedure: Based on the drug prescription records, cats were divided into two groups: a BPS therapy group consisting of 73 cats; and a BPS therapy-free group consisting of 126 cats.
In Example 3, the periods before kidney death were compared and analyzed retrospectively. The timing of kidney death was determined with reference to the guidelines on acute kidney insufficiency from the International Renal Interest Society. On the basis of the statement such that “a patient may die within 5 to 10 days despite appropriate conservative therapy without kidney replacement therapy if serum creatinine is higher than 10.0 mg/dL,” specifically, kidney death was determined when serum creatinine of higher than 10.0 mg/dL was recorded in the serum creatinine test. By designating kidney death as the outcome, the start date of treatment as the point of origin for the cats in the BPS therapy group, and the start date of observation as the point of origin for the cats in the No BPS therapy group, the periods (months) before the outcome was observed were recorded. In analysis, the 3-year kidney survival rates (%) of the BPS therapy group and of the No BPS therapy group, the standard errors thereof, the 95% confidence intervals, and the comparison of the 3-year kidney survival rates (%) between the groups were calculated. […] Differences in the kidney survival rates were assessed by the log rank test, the Cochran-Mantel-Haenszel test, by setting significant level at a two-tailed P-value of <0.05.
Based on the drug prescription records, cats were divided into two groups: a BPS therapy group consisting of 37 cats; and a BPS therapy-free group consisting of 332 cats.
In Comparative Example 2, the periods before kidney death were compared and analyzed retrospectively. The timing of kidney death was determined with reference to the guidelines on acute kidney insufficiency from the International Renal Interest Society. On the basis of the statement such that “a patient may die within 5 to 10 days despite appropriate conservative therapy without kidney replacement therapy if serum creatinine is higher than 10.0 mg/dL,” specifically, kidney death was determined when serum creatinine of higher than 10.0 mg/dL was recorded in the serum creatinine test. By designating kidney death as the outcome, the start date of treatment as the point of origin for the cats in the BPS therapy group, and the start date of observation as the point of origin for the cats in the No BPS therapy group, the periods (months) before the outcome was observed were recorded. In analysis, the 3-year kidney survival rates (%) of the BPS therapy group and of the No BPS therapy group, the standard errors thereof, the 95% confidence intervals, and the comparison of the 3-year kidney survival rates (%) between the groups were calculated. […] Differences in the kidney survival rates were assessed by the log rank test, the Cochran-Mantel-Haenszel test, by setting significant level at a two-tailed P-value of <0.05.

cats with CKD [3] = conditions: 55 μg twice daily for at least 5 months, cited from earlier work
cats with CKD [4] = experiment: Retrospective observation study: survival period / overall survival rate (all-cause death), BPS therapy vs No BPS therapy; type: in vivo, cat; conditions: for average survival period / median survival period: Kaplan-Meier
Procedure: Based on the drug prescription records, cats were divided into two groups: a BPS therapy group consisting of 17 cats; and a BPS therapy-free group consisting of 67 cats, and baseline characteristics and the survival periods were compared and analyzed retrospectively. To the cats in the BPS therapy group, BPS drugs for veterinary use, RAPROS (trademark) (Toray Industries, Inc.), were administered while adjusting the amount of BPS to 20.0 to 49.1 μg/kg body weight/day and the median to 31.4 μg/kg body weight/day twice daily during or after morning and evening feeding occasions. By designating all-cause death as the outcome, the start date of treatment as the point of origin for the cats in the BPS therapy group, and the start date of observation as the point of origin for the cats in the No BPS therapy group based on the death records, the periods (months) before the outcome was observed were recorded. In analysis, the 2-year overall survival rates (%) of the BPS therapy group and of the No BPS therapy group, the standard errors thereof, the 95% confidence intervals, and the comparison of the 2-year overall survival rates (%) between the groups were calculated. […] Differences in the overall survival rates were assessed by the log rank test, the Cochran-Mantel-Haenszel test, by setting significant level at a two-tailed P-value of <0.05. […]
From among the cats with CKD, the data sets of […] having body weight of less than 3.5 kg were extracted, and the cats were divided into two groups: a BPS therapy group consisting of 19 cats; and a BPS therapy-free group consisting of 40 cats. In the same manner as described above, the 3-year overall survival rates (%) and the average survival periods were compared between the groups.

[5] = 55 μg or 6 to 26.4 μg/kg, preferably twice daily for 30 days or longer (WO '949)
[6] = stage 2 before initiation of administration
[7] = first study, 26 cats (BPS group 11)
[8] = later study, 29 cats (BPS group 15)
[9] = cats with CKD having body weight of less than 3.5 kg
[10] = stage 3 and body weight of less than 4.2 kg

What does the source list for `CC#CCC(C)[C@H](O)/C=C/[C@@H]1[C@H]2c3cccc(CCCC(=O)[O-])c3O[C@H]2C[C@H]1O.[Na+]` (stereo partly shown) [BPS, Beraprost sodium]?
adverse side effects [1, 5]: without adverse side effects; kidney function marker values [1, 5]: inhibit elevation in kidney function marker values such as serum creatinine and BUN; tolerability and safety ([1]; 55 μg twice daily for 6 months): well-tolerated and safe; serum creatinine ([1]; 55 μg twice daily for 6 months, vs placebo): inhibited serum creatinine elevation observed in the placebo group; 3-year kidney survival rate (cats with CKD [2]; serum creatinine 1.6 to 2.8 mg/dL (stage 2)): 90.0%; 3-year kidney survival rate (cats with CKD [2]; serum creatinine 2.9 to 5.0 mg/dL (stage 3) or higher than 5.0 mg/dL (stage 4), 10.0 mg/dL or lower): 77.1%; 3-year kidney survival rate of BPS therapy group relative to No BPS therapy group (cats with CKD [2]; stage 2): 0.95 times; average kidney survival period of BPS therapy group relative to No BPS therapy group (cats with CKD [2]; stage 2): 0.97 times; average period before kidney death (cats with CKD [2]; stage 2): 40.8 months; effect on kidney death (cats with CKD [2]; [6]): no effects of BPS administration to inhibit kidney death were observed; 3-year kidney survival rate of BPS therapy group relative to No BPS therapy group (cats with CKD [2]; stage 3 or 4): 1.20 times; average kidney survival period of BPS therapy group relative to No BPS therapy group (cats with CKD [2]; stage 3 or 4): 1.48 times; average period before kidney death (cats with CKD [2]; stage 3 or 4): 39.2 months; effect on kidney death (cats with CKD [2]; stage 3 or 4 before initiation of administration): effects of BPS administration to inhibit kidney death were observed; effect of improving the survival rate vs renin-angiotensin system inhibitor group (cats with CKD [3]; [7]): higher than those in the renin-angiotensin system inhibitor group; effect of lowering the risk of 10% body weight loss vs renin-angiotensin system inhibitor group (cats with CKD [3]; [7]): higher than those in the renin-angiotensin system inhibitor group; effect of improving the survival rate vs renin-angiotensin system inhibitor group (cats with CKD [3]; [8]): no effects of improving the survival rate were observed; effect of lowering the risk of 10% body weight loss vs renin-angiotensin system inhibitor group (cats with CKD [3]; [8]): effects of lowering the risk of 10% body weight loss were observed; 3-year overall survival rate of BPS therapy group relative to No BPS therapy group (cats with CKD [4]; [9]): 2.90 times; average survival period of BPS therapy group relative to No BPS therapy group (cats with CKD [4]; [9]): 1.66 times; 3-year overall survival rate (cats with CKD [4]; cats with CKD, serum creatinine 1.6 to 2.8 mg/dL (stage 2)): 52.2%; 3-year overall survival rate (cats with CKD [4]; cats with CKD, serum creatinine 2.9 to 5.0 mg/dL (stage 3)): 33.5%; 2-year overall survival rate (cats with CKD [4]; cats with CKD, serum creatinine higher than 5.0 mg/dL (stage 4), BPS 20.0 to 49.1 μg/kg body weight/day, twice daily): 25.9%; 3-year overall survival rate of BPS therapy group relative to No BPS therapy group (cats with CKD [4]; stage 2): 0.72 times; average survival period of BPS therapy group relative to No BPS therapy group (cats with CKD [4]; stage 2): 0.90 times; average survival period (cats with CKD [4]; stage 2): 31.5 months; effect on overall survival rate or observed survival rate (cats with CKD [4]; [6]): no effects of BPS administration to improve the overall survival rate or the observed survival rate were observed; average survival period of BPS therapy group relative to No BPS therapy group (cats with CKD [4]; stage 3): 1.54 times; 3-year overall survival rate of BPS therapy group relative to No BPS therapy group (cats with CKD [4]; stage 3 (Example 4)): 1.85 times; 3-year overall survival rate (cats with CKD [4]; stage 3 (serum creatinine 2.9 to 5.0 mg/dL) and body weight of less than 4.2 kg): 28.0%; average survival period (cats with CKD [4]; stage 3): 25.3 months; median survival period (cats with CKD [4]; stage 3): 23.4 months; average survival period of BPS therapy group relative to No BPS therapy group (cats with CKD [4]; [10]): 1.54 times; 3-year overall survival rate of BPS therapy group relative to No BPS therapy group (cats with CKD [4]; stage 3 and body weight of less than 4.2 kg (Example 6)): 2.77 times; effect on overall survival rate or observed survival rate (cats with CKD [4]; stage 3 and body weight of less than 4.2 kg before initiation of administration): effects of BPS administration to improve the overall survival rate or the observed survival rate were observed; average survival period (cats with CKD [4]; [10]): 22.4 months; median survival period (cats with CKD [4]; [10]): 19.8 months; effect on overall survival rate or observed survival rate (cats with CKD [4]; stage 3 before initiation of administration): effects of BPS administration to improve the overall survival rate or the observed survival rate were observed; 2-year overall survival rate of BPS therapy group relative to No BPS therapy group (cats with CKD [4]; stage 4): 4.80 times; average survival period of BPS therapy group relative to No BPS therapy group (cats with CKD [4]; stage 4): 2.43 times; average survival period (cats with CKD [4]; stage 4): 14.1 months; median survival period (cats with CKD [4]; stage 4): 10.2 months; effect on overall survival rate or observed survival rate (cats with CKD [4]; stage 4 before initiation of administration): effects of BPS administration to improve the overall survival rate or the observed survival rate were observed
